Measured values: US20060275333A1, “Composition with beads for treatment of contact dermatitis” (Humco Holding Group, Inc., priority 2005, published 2006)

Key:
[1] = exposed to 50 micrograms of purified urushiol; cited from earlier work
[2] = system: Epiderm normal human-derived epidermal keratinocytes; assay: MTT assay of tissue viability of Epiderm artificial skin; format: cell-based; conditions: after the 48-hour time period; untreated tissues = 100%; same test materials
Procedure: The efficacy of nonylphenol ethoxylate on urushiol-induced dermatitis was evaluated by ELISA and MTT techniques. The MTT evaluation was based on a technique first described in Mosmann, T., “Rapid calorimetric assay for cellular growth and survival: application to proliferation and cytotoxicity assays,” J. Immunol. Methods, Dec. 16, 1983, 65(1-2):55-63. The analysis is based on the compound [3-(4,5-dimethylthiazol-2-yl)-2,5-diphenyltetrazolium bromide], commonly referred to as MTT. As reported by Mosmann, mitochondrial dehydrogenase enzyme from viable cells can cleave the tetrazolium rings of the pale yellow MTT and form dark blue formazin crystals. The crystals cannot permeate cell membranes, and thus tend to accumulate within healthy cells. […] The formazin is extracted with isopropanol and measured spectrophotometrically. […]
Epidermal irritation often is associated with a loss of viable ketinocytes. Therefore, changes in tissue viability after exposure to urushiol and the test were assessed using the MTT assay described above. […] After the extraction, a 200 μl sample from each well of the isopropanol/MTT mixture was transferred to a 96-well plate and the absorbance of the sample was read at 540 nm with a plate reader using 200 μl of isopropanol as the blank.
The mean MTT absorbance value for the untreated tissues was calculated and used to represent 100% tissue viability. […]

[3] = system: IL-6; assay: IL-6 release from Epiderm artificial skin, ELISA of culture media; format: cell-based, human
Source text: (§1) When urushiol is applied to human skin it can elicit the synthesis and release of several key inflammatory cytokines, including IL-1α, IL-1β, IL-6, and IL-8. Release of these cytokines also has been noted in cultured keratinocyte models after the application of urushiol. IL-1α and IL-6 are synthesized and stored in keratinocytes and have been identified as mediators of skin irritation and inflammation. Release of these two cytokines can be measured directly in tissue culture media by a calorimetric enzyme linked immunosorbent assay (ELISA). In such measurements, antibodies covalently linked to a solid support will bind any IL-1α or IL-6 present in spent culture media samples. A second antibody that is covalently attached to an acetylcholinesterase enzyme will in turn detect the bound cytokines. Upon addition of an appropriate color substrate the acetylcholinesterase enzyme will in turn detect the bound cytokines. Upon addition of an appropriate color substrate the acetylcholinesterase enzyme will generate a colored end product that can be measured spectrophotometrically.
Testing of the invention herein was conducted using an artificial skin product designed for toxicity testing and sold under the name Epiderm® by Mat Tek Corporation of Ashland, Massachusetts. This artificial skin product consists of normal human-derived epidermal keratinocytes that have been cultured to form a multilayered, highly differentiated model of the human epidermis. […] Markers of mature epidermis specific differentiation such as profilaggrin, the K1/K10 cytokeratin pair, involucrin, and type I epidermal transglutaminase have been localized in this product. The product is also mitotically and metabolically active.
The Epidermic tissue samples were stored at 2-8° C. until used. The analyses were conducted with an ELISA test kit from Cayman Chemicals of Ann Arbor, Michigan, with all buffers and reagents being prepared according to the kit's instructions and allowed to come to room temperature. Prior to use, the tissues were removed from the agarose shipping tray and placed into a 6-well plate containing 1.0 ml of assay medium from the test kit, at 37±2° C. The tissues were allowed to incubate for one hour at 37±2° C. and 5±1% CO2. After this initial incubation, the assay medium was replaced with 1 ml of fresh medium at 37±2° C. […] The collected culture media were stored at −75±5° C. until analyzed for IL-1α and IL-6 levels. The IL-1α and IL-6 levels were determined by comparison with a standard curve generated from samples having known concentrations of these two cytokines. […] Absorbance values for the test materials and untreated samples were then used to estimate the amount of cytokine present in each sample.

[4] = system: IL-1α; assay: IL-1α release from Epiderm artificial skin, ELISA of culture media; format: cell-based, human
Source text: as §1, with “A second antibody that is covalently attached to an acetylcholinesterase enzyme will in turn detect the bound cytokines. Upon addition of an appropriate color substrate the acetylcholinesterase enzyme will in turn detect the bound cytokines.” left out, “spectrophotometrically. […]” for “spectrophotometrically.”
The Epidermic tissue samples were stored at 2-8° C. until used. […] The collected culture media were stored at −75±5° C. until analyzed for IL-1α and IL-6 levels. The IL-1α and IL-6 levels were determined by comparison with a standard curve generated from samples having known concentrations of these two cytokines. […] Absorbance values for the test materials and untreated samples were then used to estimate the amount of cytokine present in each sample.

[5] = 4 Hours, Epiderm tissue, 100 μl test material, Urushiol = control lotion 0.05% 2-deoxy-urushiol, Nonylphenol Ethoxylate = control lotion + 0.2% w/v nonyl phenyl ethoxylate

**Q.** Which results are given for `CCCCCCCCCCCCCCCc1cccc(O)c1O` [Urushiol]?
**A.** adult Americans who get a rash [1]: 80-90%; Percent Viability (MTT Assay) [2]: 88 ± 5%; IL-6 Accumulation in Cell Culture Media [3, 5]: 1.9 ± 0.4 pg/mL; IL-6 Accumulation in Cell Culture Media ([3]; 12 Hours, same test materials): 5.1 ± 0.4 pg/mL; IL-6 Accumulation in Cell Culture Media ([3]; 24 Hours, same test materials): 9.4 ± 0.3 pg/mL; IL-6 Accumulation in Cell Culture Media ([3]; 48 Hours, same test materials): 16.4 ± 1.4 pg/mL; IL-1α Accumulation in Cell Culture Media [4, 5]: 16.1 ± 5.2 pg/mL; IL-1α Accumulation in Cell Culture Media ([4]; 12 Hours, same test materials): 32.6 ± 6.3 pg/mL
